Reference: US6518243B1, “Desleucyl glycopeptide antibiotics and methods of making same” (Trustees of Princeton University, priority 1999, dated 2003)

Key:
[1] = system: S. epidermidis (ATCC 12228); assay: Zone of inhibition screen, 96 well agar array format; format: cell-based; set-up: scale not given here
In short: (§1)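 Panel screening of every compound against several bacterial strains, among them E. faecium ATCC 49624, was done in a 96-well agar array.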

E. faecalis (CL 4877) = assay: as above; format: cell-based; set-up: scale not given here
In short: as §1

[2] = zone of inhibition relative to 1 mg/ml p-chlorobiphenylvancomycin
[3] = zone of inhibition relative to 1 mg/ml stock solution of p-chlorobiphenylvancomycin

SMILES	zone score, S. epidermidis ATCC 12228 [1, 2]	zone score, E. faecalis CL 4877 (E. faecalis (CL 4877); [2])	zone score, S. epidermidis ATCC 12228 [1, 3]	zone score, E. faecalis CL 4877 (E. faecalis (CL 4877); [3])
CCOC(=O)C=CC(=O)NC1C(=O)NC(CC(N)=O)C(=O)NC2C(=O)NC3C(=O)NC(C(=O)NC(C(=O)O)c4cc(O)cc(O)c4-c4cc3ccc4O)C(O)c3ccc(c(Cl)c3)Oc3cc2cc(c3OC2OC(CO)C(O)C(O)C2OC2CC(C)(NCc3ccc(-c4ccc(Cl)cc4)cc3)C(O)C(C)O2)Oc2ccc(cc2Cl)C1O (stereo not drawn) [Compound 288]	2	2	–	–
CC(NC=O)C(=O)NC1C(=O)NC(CC(N)=O)C(=O)NC2C(=O)NC3C(=O)NC(C(=O)NC(C(=O)O)c4cc(O)cc(O)c4-c4cc3ccc4O)C(O)c3ccc(c(Cl)c3)Oc3cc2cc(c3OC2OC(CO)C(O)C(O)C2OC2CC(C)(NCc3ccc(-c4ccc(Cl)cc4)cc3)C(O)C(C)O2)Oc2ccc(cc2Cl)C1O (mixture of isomers) [Compound 325]	2	2	–	–
CC1OC(OC2C(Oc3c4cc5cc3Oc3ccc(cc3Cl)C(O)C3NC(=O)C(NC(=O)C5NC(=O)C(CC(N)=O)NC(=O)C(NC(=O)C[N+](C)(C)C)C(O)c5ccc(c(Cl)c5)O4)c4ccc(O)c(c4)-c4c(O)cc(O)cc4C(C(=O)O)NC3=O)OC(CO)C(O)C2O)CC(C)(NCc2ccc(-c3ccc(Cl)cc3)cc2)C1O (stereo not drawn) [Compound 129]	–	–	2	2
CC1OC(OC2C(Oc3c4cc5cc3Oc3ccc(cc3Cl)C(O)C3NC(=O)C(NC(=O)C5NC(=O)C(CC(N)=O)NC(=O)C(NC(=O)c5ccccc5N)C(O)c5ccc(c(Cl)c5)O4)c4ccc(O)c(c4)-c4c(O)cc(O)cc4C(C(=O)O)NC3=O)OC(CO)C(O)C2O)CC(C)(NCc2ccc(-c3ccc(Cl)cc3)cc2)C1O (stereo not drawn) [Compound 280]	2	2	–	–
CC1OC(OC2C(Oc3c4cc5cc3Oc3ccc(cc3Cl)C(O)C3NC(=O)C(NC(=O)C5NC(=O)C(CC(N)=O)NC(=O)C(NC(=O)C(N)CC(N)=O)C(O)c5ccc(c(Cl)c5)O4)c4ccc(O)c(c4)-c4c(O)cc(O)cc4C(C(=O)O)NC3=O)OC(CO)C(O)C2O)CC(C)(NCc2ccc(-c3ccc(Cl)cc3)cc2)C1O (stereo not drawn) [Compound 53]	–	–	2	2
CC1OC(OC2C(Oc3c4cc5cc3Oc3ccc(cc3Cl)C(O)C3NC(=O)C(NC(=O)C5NC(=O)C(CC(N)=O)NC(=O)C(NC(=O)c5cccs5)C(O)c5ccc(c(Cl)c5)O4)c4ccc(O)c(c4)-c4c(O)cc(O)cc4C(C(=O)O)NC3=O)OC(CO)C(O)C2O)CC(C)(NCc2ccc(-c3ccc(Cl)cc3)cc2)C1O (stereo not drawn) [Compound 319]	2	2	–	–
CC1OC(OC2C(Oc3c4cc5cc3Oc3ccc(cc3Cl)C(O)C3NC(=O)C(NC(=O)C5NC(=O)C(CC(N)=O)NC(=O)C(NC(=O)c5ccncc5)C(O)c5ccc(c(Cl)c5)O4)c4ccc(O)c(c4)-c4c(O)cc(O)cc4C(C(=O)O)NC3=O)OC(CO)C(O)C2O)CC(C)(NCc2ccc(-c3ccc(Cl)cc3)cc2)C1O (stereo not drawn) [Compound 292]	2	2	–	–
CC1NC(=O)NC1CCCCCC(=O)NC1C(=O)NC(CC(N)=O)C(=O)NC2C(=O)NC3C(=O)NC(C(=O)NC(C(=O)O)c4cc(O)cc(O)c4-c4cc3ccc4O)C(O)c3ccc(c(Cl)c3)Oc3cc2cc(c3OC2OC(CO)C(O)C(O)C2OC2CC(C)(NCc3ccc(-c4ccc(Cl)cc4)cc3)C(O)C(C)O2)Oc2ccc(cc2Cl)C1O (stereo not drawn) [Compound 284]	2	2	–	–
CNC(=O)C=CC(=O)NC1C(=O)NC(CC(N)=O)C(=O)NC2C(=O)NC3C(=O)NC(C(=O)NC(C(=O)O)c4cc(O)cc(O)c4-c4cc3ccc4O)C(O)c3ccc(c(Cl)c3)Oc3cc2cc(c3OC2OC(CO)C(O)C(O)C2OC2CC(C)(NCc3ccc(-c4ccc(Cl)cc4)cc3)C(O)C(C)O2)Oc2ccc(cc2Cl)C1O (stereo not drawn) [Compound 309]	2	2	–	–
CC1OC(OC2C(Oc3c4cc5cc3Oc3ccc(cc3Cl)C(O)C3NC(=O)C(NC(=O)C5NC(=O)C(CC(N)=O)NC(=O)C(NC(=O)Cn5cnnn5)C(O)c5ccc(c(Cl)c5)O4)c4ccc(O)c(c4)-c4c(O)cc(O)cc4C(C(=O)O)NC3=O)OC(CO)C(O)C2O)CC(C)(NCc2ccc(-c3ccc(Cl)cc3)cc2)C1O (stereo not drawn) [Compound 228]	2	2	–	–
CC(O)C(=O)NC1C(=O)NC(CC(N)=O)C(=O)NC2C(=O)NC3C(=O)NC(C(=O)NC(C(=O)O)c4cc(O)cc(O)c4-c4cc3ccc4O)C(O)c3ccc(c(Cl)c3)Oc3cc2cc(c3OC2OC(CO)C(O)C(O)C2OC2CC(C)(NCc3ccc(-c4ccc(Cl)cc4)cc3)C(O)C(C)O2)Oc2ccc(cc2Cl)C1O (stereo not drawn) [Compound 294]	2	2	–	–
CC(=O)NC1C(=O)NC(CC(N)=O)C(=O)NC2C(=O)NC3C(=O)NC(C(=O)NC(C(=O)O)c4cc(O)cc(O)c4-c4cc3ccc4O)C(O)c3ccc(c(Cl)c3)Oc3cc2cc(c3OC2OC(CO)C(O)C(O)C2OC2CC(C)(NCc3ccc(-c4ccc(Cl)cc4)cc3)C(O)C(C)O2)Oc2ccc(cc2Cl)C1O (stereo not drawn) [Compound 279]	2	2	–	–
CC1OC(OC2C(Oc3c4cc5cc3Oc3ccc(cc3Cl)C(O)C3NC(=O)C(NC(=O)C5NC(=O)C(CC(N)=O)NC(=O)C(NC(=O)c5cccc(O)n5)C(O)c5ccc(c(Cl)c5)O4)c4ccc(O)c(c4)-c4c(O)cc(O)cc4C(C(=O)O)NC3=O)OC(CO)C(O)C2O)CC(C)(NCc2ccc(-c3ccc(Cl)cc3)cc2)C1O (stereo not drawn) [Compound 277]	2	2	–	–
CCOC(=O)C=CC(=O)NC1C(=O)NC(CC(N)=O)C(=O)NC2C(=O)NC3C(=O)NC(C(=O)NC(C(=O)O)c4cc(O)cc(O)c4-c4cc3ccc4O)C(O)c3ccc(c(Cl)c3)Oc3cc2cc(c3OC2OC(CO)C(O)C(O)C2OC2CC(C)(NCc3ccc(-c4ccc(Cl)cc4)cc3)C(O)C(C)O2)Oc2ccc(cc2Cl)C1O (stereo not drawn) [Compound 296]	2	2	–	–
CC1OC(OC2C(Oc3c4cc5cc3Oc3ccc(cc3Cl)C(O)C3NC(=O)C(NC(=O)C5NC(=O)C(CC(N)=O)NC(=O)C(NC(=O)c5cccc(C(F)(F)F)c5)C(O)c5ccc(c(Cl)c5)O4)c4ccc(O)c(c4)-c4c(O)cc(O)cc4C(C(=O)O)NC3=O)OC(CO)C(O)C2O)CC(C)(NCc2ccc(-c3ccc(Cl)cc3)cc2)C1O (stereo not drawn) [Compound 247]	2	2	–	–
CC1OC(OC2C(Oc3c4cc5cc3Oc3ccc(cc3Cl)C(O)C3NC(=O)C(NC(=O)C5NC(=O)C(CC(N)=O)NC(=O)C(NC(=O)c5ccc[n+]([O-])c5)C(O)c5ccc(c(Cl)c5)O4)c4ccc(O)c(c4)-c4c(O)cc(O)cc4C(C(=O)O)NC3=O)OC(CO)C(O)C2O)CC(C)(NCc2ccc(-c3ccc(Cl)cc3)cc2)C1O (stereo not drawn) [Compound 308]	2	2	–	–
CC1OC(OC2C(Oc3c4cc5cc3Oc3ccc(cc3Cl)C(O)C3NC(=O)C(NC(=O)C5NC(=O)C(CC(N)=O)NC(=O)C(NC(=O)c5cccnc5N)C(O)c5ccc(c(Cl)c5)O4)c4ccc(O)c(c4)-c4c(O)cc(O)cc4C(C(=O)O)NC3=O)OC(CO)C(O)C2O)CC(C)(NCc2ccc(-c3ccc(Cl)cc3)cc2)C1O (stereo not drawn) [Compound 237]	2	2	–	–
CC1OC(OC2C(Oc3c4cc5cc3Oc3ccc(cc3Cl)C(O)C3NC(=O)C(NC(=O)C5NC(=O)C(CC(N)=O)NC(=O)C(NC(=O)CNC(=O)C=Cc5ccco5)C(O)c5ccc(c(Cl)c5)O4)c4ccc(O)c(c4)-c4c(O)cc(O)cc4C(C(=O)O)NC3=O)OC(CO)C(O)C2O)CC(C)(NCc2ccc(-c3ccc(Cl)cc3)cc2)C1O (stereo not drawn) [Compound 306]	2	2	–	–
CSCCC(NC(C)=O)C(=O)NC1C(=O)NC(CC(N)=O)C(=O)NC2C(=O)NC3C(=O)NC(C(=O)NC(C(=O)O)c4cc(O)cc(O)c4-c4cc3ccc4O)C(O)c3ccc(c(Cl)c3)Oc3cc2cc(c3OC2OC(CO)C(O)C(O)C2OC2CC(C)(NCc3ccc(-c4ccc(Cl)cc4)cc3)C(O)C(C)O2)Oc2ccc(cc2Cl)C1O (stereo not drawn) [Compound 182]	–	–	2	2
CC1OC(OC2C(Oc3c4cc5cc3Oc3ccc(cc3Cl)C(O)C3NC(=O)C(NC(=O)C5NC(=O)C(CC(N)=O)NC(=O)C(NC(=O)Cc5c(F)c(F)c(F)c(F)c5F)C(O)c5ccc(c(Cl)c5)O4)c4ccc(O)c(c4)-c4c(O)cc(O)cc4C(C(=O)O)NC3=O)OC(CO)C(O)C2O)CC(C)(NCc2ccc(-c3ccc(Cl)cc3)cc2)C1O (stereo not drawn) [Compound 310]	2	2	–	–
CC1OC(OC2C(Oc3c4cc5cc3Oc3ccc(cc3Cl)C(O)C3NC(=O)C(NC(=O)C5NC(=O)C(CC(N)=O)NC(=O)C(NC(=O)CSCCS(=O)(=O)c5ccc(Cl)cc5)C(O)c5ccc(c(Cl)c5)O4)c4ccc(O)c(c4)-c4c(O)cc(O)cc4C(C(=O)O)NC3=O)OC(CO)C(O)C2O)CC(C)(NCc2ccc(-c3ccc(Cl)cc3)cc2)C1O (stereo not drawn) [Compound 300]	2	2	–	–
CC1OC(OC2C(Oc3c4cc5cc3Oc3ccc(cc3Cl)C(O)C3NC(=O)C(NC(=O)C5NC(=O)C(CC(N)=O)NC(=O)C(NC(=O)CC(NC(=O)OC(C)(C)C)C(N)=O)C(O)c5ccc(c(Cl)c5)O4)c4ccc(O)c(c4)-c4c(O)cc(O)cc4C(C(=O)O)NC3=O)OC(CO)C(O)C2O)CC(C)(NCc2ccc(-c3ccc(Cl)cc3)cc2)C1O (stereo not drawn) [Compound 134]	–	–	2	2
CC1OC(OC2C(Oc3c4cc5cc3Oc3ccc(cc3Cl)C(O)C3NC(=O)C(NC(=O)C5NC(=O)C(CC(N)=O)NC(=O)C(NC(=O)Cc5ccsc5)C(O)c5ccc(c(Cl)c5)O4)c4ccc(O)c(c4)-c4c(O)cc(O)cc4C(C(=O)O)NC3=O)OC(CO)C(O)C2O)CC(C)(NCc2ccc(-c3ccc(Cl)cc3)cc2)C1O (stereo not drawn) [Compound 320]	2	2	–	–
CC1OC(OC2C(Oc3c4cc5cc3Oc3ccc(cc3Cl)C(O)C3NC(=O)C(NC(=O)C5NC(=O)C(CC(N)=O)NC(=O)C(NC(=O)CNC=O)C(O)c5ccc(c(Cl)c5)O4)c4ccc(O)c(c4)-c4c(O)cc(O)cc4C(C(=O)O)NC3=O)OC(CO)C(O)C2O)CC(C)(NCc2ccc(-c3ccc(Cl)cc3)cc2)C1O (stereo not drawn) [Compound 193]	–	–	2	2
